Test results reported in paper PMC3983388 (Journal of Medicinal Chemistry, 2014).
≈ marks a conversion by molar mass, not a printed value.

What was measured:
[1] = in vivo, po; cited from earlier work
[2] = pH 6.8, aqueous solubility pH 6.8

| SMILES | solubility (physchem; [2]) [µM] | solubility (physchem; pH 1, aqueous solubility pH 1.0) [µM] | serum levels [1] [µM] |
| --- | --- | --- | --- |
| Cc1ccnc(NC(c2ccc([N+](=O)[O-])cc2)c2ccc3cccnc3c2O)c1 (centres unmarked) [Compound 34] | 0.0741 (≈ 0.0286 µg/mL) | – | – |
| Cc1ccnc(NC(c2ccc([N+](=O)[O-])cc2)c2ccc3ccc(C)nc3c2O)c1 (centres unmarked) [Compound 35] | 0.0659 (≈ 0.0264 µg/mL) | – | – |
| COc1ccc(C(Nc2ccccn2)c2ccc3cccnc3c2O)cc1 (centres unmarked) [Compound 36] | 0.0053 (≈ 0.00189 µg/mL) | – | – |
| COc1ccc(C(Nc2ccccn2)c2ccc3ccc(C)nc3c2O)cc1 (centres unmarked) [Compound 37] | 0.0338 (≈ 0.0126 µg/mL) | – | – |
| Oc1c(CNc2ccccn2)ccc2cccnc12 [Compound 56, 7-(((Pyridin-2-yl)amino)methyl)quinolin-8-ol] | 0.111 (≈ 0.0279 µg/mL) | – | – |
| Oc1c(C(Nc2ccccn2)c2ccccc2)ccc2cccnc12 (centres unmarked) [Compound 57, 7-(Phenyl((pyridin-2-yl)amino)methyl)quinolin-8-ol] | 0.078 (≈ 0.0255 µg/mL) | ~1200 (≈ 393 µg/mL) | – |
| Oc1c(I)cc(Cl)c2cccnc12 [Compound 58, 5-chloro-7-iodo-8-hydroxy-quinoline, reference compound] | < 0.001 | – | 13 to 25 |
| Oc1c(Cl)cc(Cl)c2cccnc12 [Compound 60, 5,7-dichloro-8-hydroxy-quinoline, reference compound] | 0.5 (≈ 0.107 µg/mL) | – | – |
| Cc1ccc2c(Cl)cc(Cl)c(O)c2n1 [Compound 61, 5,7-dichloro-2-methyl-8-hydroxy-quinoline] | 0.394 (≈ 0.0899 µg/mL) | – | – |
